Activity calls are given as the source filed them. No cut-off for these calls is given here.
Key:
Nucleic Acid [1] = assay: Binding affinity to AGGG(TTAGGG)3 G-quadruplex in Tris-HCl buffer assessed as change in melting temperature at 3 uM by CD titration method in presence of 100 mM NaCl; type: nucleic-acid assay
Nucleic Acid [2] = assay: Binding affinity to TAGGG(TTAGGG)3 G-quadruplex in Tris-HCl buffer assessed as change in melting temperature at 3 uM by CD titration method in presence of 100 mM NaCl; type: nucleic-acid assay
Nucleic Acid [3] = assay: Binding affinity to biotin-labeled AGGG(TTAGGG)3 at 1 to 960 nM by SPR analysis in presence of […]; type: nucleic-acid assay
Nucleic Acid [4] = assay: Binding affinity to AGGG(TTAGGG)3 G-quadruplex in Tris-HCl buffer by UV-vis spectrophotometric titration method in presence of 100 mM KCl; type: nucleic-acid assay
Nucleic Acid [5] = assay: Stabilization of AGGG(TTAGGG)3 G-quadruplex in Tris-HCl buffer at DNA/ligand molar ratio 1 to 4 by CD titration method in presence of 100 mM KCl; type: nucleic-acid assay
Nucleic Acid [6] = assay: Binding affinity to AGGG(TTAGGG)3 G-quadruplex in Tris-HCl buffer assessed as change in melting temperature at 3 uM by CD titration method in presence of 100 mM KCl; type: nucleic-acid assay
Nucleic Acid [7] = assay: Binding affinity to TAGGG(TTAGGG)3 G-quadruplex in Tris-HCl buffer by UV-vis spectrophotometric titration method in presence of 100 mM KCl; type: nucleic-acid assay
[8] = molecular target: Telomerase reverse transcriptase (Homo sapiens, UniProt O14746); assay: Inhibition of telomerase-mediated primer elongation by gel electrophoresis-based TRAP assay
Chain of Telomerase reverse transcriptase (O14746 whole entry): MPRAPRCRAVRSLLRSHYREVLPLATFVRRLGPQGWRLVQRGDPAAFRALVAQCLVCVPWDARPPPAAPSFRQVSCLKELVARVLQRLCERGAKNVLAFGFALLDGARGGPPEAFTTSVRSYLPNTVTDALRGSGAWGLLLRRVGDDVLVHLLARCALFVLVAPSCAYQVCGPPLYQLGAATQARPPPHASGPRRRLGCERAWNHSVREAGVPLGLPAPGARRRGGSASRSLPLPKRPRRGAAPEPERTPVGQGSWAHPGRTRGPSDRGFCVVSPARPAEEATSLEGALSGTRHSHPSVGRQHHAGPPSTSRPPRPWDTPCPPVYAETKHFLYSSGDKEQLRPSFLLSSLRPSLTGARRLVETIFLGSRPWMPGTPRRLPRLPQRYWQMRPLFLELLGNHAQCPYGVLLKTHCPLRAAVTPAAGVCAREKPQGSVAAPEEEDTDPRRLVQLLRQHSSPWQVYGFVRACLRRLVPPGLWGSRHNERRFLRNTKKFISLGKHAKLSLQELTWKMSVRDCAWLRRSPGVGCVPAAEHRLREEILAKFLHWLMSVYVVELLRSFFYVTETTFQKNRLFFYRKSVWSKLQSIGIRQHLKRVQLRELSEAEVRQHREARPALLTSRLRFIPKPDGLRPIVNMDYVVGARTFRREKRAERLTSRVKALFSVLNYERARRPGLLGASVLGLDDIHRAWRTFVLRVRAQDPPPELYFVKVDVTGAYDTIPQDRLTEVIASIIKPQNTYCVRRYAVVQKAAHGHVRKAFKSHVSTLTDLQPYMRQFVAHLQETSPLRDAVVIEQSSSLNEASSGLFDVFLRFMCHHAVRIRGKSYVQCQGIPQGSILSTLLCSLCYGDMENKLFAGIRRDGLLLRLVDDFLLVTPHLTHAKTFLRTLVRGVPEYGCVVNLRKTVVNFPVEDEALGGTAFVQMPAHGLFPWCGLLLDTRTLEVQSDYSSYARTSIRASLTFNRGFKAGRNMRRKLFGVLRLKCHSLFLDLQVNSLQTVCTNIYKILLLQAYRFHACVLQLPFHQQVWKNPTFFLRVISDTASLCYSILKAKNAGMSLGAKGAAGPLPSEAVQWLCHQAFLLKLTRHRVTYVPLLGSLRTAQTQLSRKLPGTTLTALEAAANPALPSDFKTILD

Nucleic Acid [9] = assay: Binding affinity to ds AGGG(TTAGGG)3 in Tris-HCl buffer assessed as melting temperature at DNA/compound molar ratio 1:2 by CD titration method in presence of 100 mM KCl (reference value: 58 degC); type: nucleic-acid assay
Nucleic Acid [10] = assay: Binding affinity to TAGGG(TTAGGG)3 G-quadruplex in Tris-HCl buffer assessed as change in melting temperature at 3 uM by CD titration method in presence of 100 mM KCl; type: nucleic-acid assay
Nucleic Acid [11] = assay: Binding affinity to biotin-labeled AGGG(TTAGGG)3 at 1 to 960 nM by SPR analysis in presence of 0.15 mM NaCl; type: nucleic-acid assay
Nucleic Acid [12] = assay: Binding affinity to AGGG(TTAGGG)3 G-quadruplex in Tris-HCl buffer by spectrophotometric titration method in presence of 100 mM KCl; type: nucleic-acid assay
Nucleic Acid [13] = assay: Binding affinity to TAGGG(TTAGGG)3 G-quadruplex in Tris-HCl buffer by spectrophotometric titration method in presence of 100 mM KCl; type: nucleic-acid assay
Nucleic Acid [14] = assay: Binding affinity to ds AGGG(TTAGGG)3 in Tris-HCl buffer after 2 hrs by UV-vis spectrophotometric titration method in presence of 100 mM KCl; type: nucleic-acid assay
Nucleic Acid [15] = assay: Binding affinity to biotin-labeled TAGGG(TTAGGG)3 at 1 to 960 nM by SPR analysis in presence of 0.15 mM NaCl; type: nucleic-acid assay
Nucleic Acid [16] = assay: Stabilization of TAGGG(TTAGGG)3 G-quadruplex in Tris-HCl buffer at DNA/ligand molar ratio 1 to 4 by CD titration method 100 mM KCl; type: nucleic-acid assay
Nucleic Acid [17] = assay: Binding affinity to biotin-labeled TAGGG(TTAGGG)3 at 1 to 960 nM by SPR analysis in presence of […]; type: nucleic-acid assay

- ΔTm (Nucleic Acid [1]): 1 °C
- ΔTm (Nucleic Acid [2]): 1 °C
- Activity (Nucleic Acid [3]): Active
- Activity (Nucleic Acid [4]): inactive
- Activity (Nucleic Acid [5]): Active
- ΔTm (Nucleic Acid [6]): 12 °C
- Activity (Nucleic Acid [7]): inactive
- EC50 [8]: 4 µM
- Tm (Nucleic Acid [9]): 66 °C
- ΔTm (Nucleic Acid [10]): 13 °C
- Activity (Nucleic Acid [11]): inactive
- K (Nucleic Acid [12]): 1.1 µM
- K (Nucleic Acid [13]): 2.8 µM
- K (Nucleic Acid [14]): 0.9 µM
- Activity (Nucleic Acid [15]): inactive
- Activity (Nucleic Acid [16]): Active
- Activity (Nucleic Acid [17]): Active
SMILES: CN(CCCN(Cc1ccccn1)Cc1ccccn1)CCCN1C(=O)c2ccc3c4c(ccc(c24)C1=O)C(=O)N(CCCN(C)CCCN(Cc1ccccn1)Cc1ccccn1)C3=O

Source: ChEMBL document CHEMBL2157879, “Improving the affinity of naphthalene diimide ligand to telomeric DNA by incorporating Zn²⁺ ions into its dipicolylamine groups” (Bioorg Med Chem, 2012)
